Laboratory results as given in patent publication US10854312B2, “Selective peptide antagonists” (BIONIZ, LLC, priority 2013, dated 2020).
Entries after “also recorded” stand apart in the source; their conditions may differ. No end group written: not given here.

How the values were obtained:
Format in all cases: cell-based
human IL-2 = test: CTLL-2 proliferation assay (WST-1), IL-2; settings: murine CTLL-2 cells, 1 nM human IL-2, BNZ132-1 50 and 500 nM, WST-1 OD450
Description: FIG. 6A-FIG. 6E presents inhibitory spectrum of BNZ132-1 over γc- and non-γc-cytokines. […] Neutralizing antibodies against each cytokine (R & D systems, 5 μg ml^−1) were included as controls. After 20 h, the cells were pulsed with WST-1 (Clontech) and OD450 of each well was measured after 6 h. A 19-mer scrambled peptide was used as a negative control at 5 μM. The experiments were conducted in triplicate (applies to all experiments in FIG. 6A-FIG. 6E). The result represents one of at least three independent experiments (applies to all experiments in FIG. 6A-FIG. 6E). […] In PT-18 proliferation assay, PT-18β or PT-18h21Rα cells were withdrawn of mouse IL-3 for 12 h before the experiment. Cells were then incubated with 1 nM of mouse IL-4, mouse IL-9, or mouse IL-21 in the presence or absence of the indicated doses (μM) of BNZ132-1. Neutralizing antibodies to each cytokine (5 μg ml^−1, except for anti-mouse IL-21 polyclonal antibody which was used at 15 μg ml−1) and a scrambled control peptide (5 μM) were included as negative controls. WST-1 assay was conducted as described above. […] In PT-18 h21Rα survival assay, PT-18h21Rα cells are described in the text. […] Both parental and hIL-21Rα positive PT-18 cells were washed and incubated without IL-3 for 12 h before the assay. […] The Y-axis represents the cpm (count per minute) values measured by a β-counter. […]

[1] = system: IL-15 signaling (STAT5, PI3kinase-Akt, MAP-kinase branches); test: Western blot of phosphorylation downstream of IL-15 in PT-18β cells; settings: 1 nM human IL-15, 0.5 μM BNZ132-1
Description: FIG. 9A-FIG. 9C present comprehensive inhibition by BN132-1 of signaling events caused by target γc-cytokines. […] Cells have been fasted of IL-3 for 12 h and then stimulated with 1 nM human IL-15 (Peprotech) in the presence or absence of 0.5 μM BNZ132-1 for 15 min before extraction of cellular proteins. Phosphorylation of the relevant molecules were detected using antibodies against each phosphor-proteins (Cell Signaling), followed by the ECL technique (Thermo Scientific). Lanes: 1. no stimulation, 2. IL-15 (1 nM), 3. IL-15 (1 nM)+BNZ132-1 (0.5 μM).
Cellular proliferation often represents a combination of several independent signaling pathways, and inhibiting one signaling branch […] the proliferation. […] FIG. 9A-FIG. 9C show comprehensive inhibition of the signal transduction pathways downstream of IL-15/IL-15 receptor system in PT-18 cells by BNZ 132-1. PT-18β cells have been withdrawn of IL-15 for overnight to induce into proliferative quiescence (no-stimulation). To restimulate the cells, 1 nM of IL-15 was added in the presence or absence of BNZ132-1 (0.5 μM). After […], cell lysates were collected and phosphorylation of key mediators of major signaling branches were determined by western blotting.

human Flt-3 ligand = human Flt-3 ligand (Homo sapiens, UniProt P49771); test: PT-18β proliferation assay (3H-thymidine), non-γc cytokine Flt-3 ligand; settings: 1 nM human Flt-3 ligand, 15 μM BNZ132-1
human Flt-3 ligand, sequence (P49771 27-235): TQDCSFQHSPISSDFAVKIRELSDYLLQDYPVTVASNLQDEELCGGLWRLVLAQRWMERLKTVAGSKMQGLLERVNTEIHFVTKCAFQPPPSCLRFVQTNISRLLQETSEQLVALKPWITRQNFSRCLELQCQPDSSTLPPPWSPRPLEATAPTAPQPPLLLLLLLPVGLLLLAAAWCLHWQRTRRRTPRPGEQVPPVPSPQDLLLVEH

## IKEFLQRFIHIVQSIINTS [BNZ132-1]
Human IL-2
  inhibition of IL-2-induced proliferation of CTLL-2 cells: inhibited IL-2 and IL-15 with an equal efficacy; also recorded: efficiently inhibits; also recorded: inhibition of IL-2 and IL-15
[1]
  inhibition of IL-15 signaling (phosphorylation of key signaling molecules): comprehensively inhibited; also recorded: near-complete inhibition
Human Flt-3 ligand
  inhibition of Flt3-L-induced proliferation of PT-18β cells: did not inhibit; also recorded: no inhibition; also recorded: no inhibition of non-γc cytokines
